The text below walks through data of patent publication US20250034161A1, “SPIROCYCLIC COMPOUND AS KRAS-G12C INHIBITOR” (Shanghai Euregen Biopharma Co., Ltd., priority 2020, published 2025).

Data set [1] can be described thus: Plasma protein binding assay (equilibrium dialysis), human plasma. It counts as in vitro ADME. As to conditions: pH 7.4, equilibrium dialysis 5 hours, read-out: Plasma protein binding rate (%) (converted). The procedure:
(§1) • 1. Test purpose: to evaluate the protein binding rate of the test compound in human, dog, monkey, rat and mouse plasma by equilibrium dialysis; • 2. […] Experimental methods: • 0.1 mol/L sodium phosphate and 0.15 mol/L sodium chloride buffer with pH 7.4±0.1 was preheated;
(§2) Preparation of plasma containing test substance: the test compound was dissolved in DMSO to prepare a 10 mmol/l stock solution. 5 μL of stock solution was taken and diluted with 95 μL of acetonitrile to obtain solution A (0.5 mmol/L). 8 μL of solution A was taken and diluted with 192 μL of 0.1 mol/L sodium phosphate buffer to obtain solution B (0.02 mmol/L). 570 μL of plasma was added into a 96-well plate followed by the addition of 30 μL of solution B. The final concentration was 1 μmol/L with 0.01% DMSO.
(§3) The plate was shook at 600 rpm for 10 minutes, covered and stored in a freezer (−20° C.).
(§4) T5 sample preparation (in triplicate): the dialysis device was added with 100 μL of buffer on its receiver side and 100 μL of plasma containing the test compound on its doner side. And the dialysis device was then shook at 37° C. and 120 rpm for 5 hours. At the end of culture, 25 μL of plasma containing the test substance was taken from the plasma side and then added to a 96-well plate, followed by the addition of 25 μL of buffer and 200 μL of acetonitrile solution containing internal standard. […]

The nature of data set [2]: Pharmacokinetic properties in rats (IV and PO, LC-MS/MS). It counts as in vivo. As to conditions: for F: SD rats; for AUC(0-inf) / Cmax / clearance / half-life / Vd: male, Sprague-Dawley (SD), rat, plasma; for Vd: read-out: Vz. The procedure: • 1. Test purpose: to determine the pharmacokinetic characteristics of some of the example compound of the present invention in SD rats after single intravenous injection(IV) and oral administration(PO) by LC-MS/MS method. • 2. […] Animal production license number (SCXK (Shanghai) 2018-0006). • 3. Test method:
Preparation of 0.5% methyl cellulose: 5 g of methyl cellulose were weighed and dissolved in 1000 mL of purified water.
Preparation of oral formulation: A required amount of test compound was weighed and dissolved in 0.5% methyl cellulose solution to obtain a suspension or solution of 0.5 mg/mL.
Preparation of intravenous injection formulation: A required amount of test compound was weighed, and dissolved in 0.5 mL of dimethyl sulfoxide to prepare a solution of 4 mg/mL. 0.25 mL of the above solution was added into 0.5 mL of polyethylene glycol 15 hydroxystearate (solutol) and 4.25 mL of normal saline to obtain a solution of 0.2 mg/mL.
The dosage and volume administered were shown in the table below Feeding, 4 hours after administration
Sample Collection: blood is collected through jugular vein or other suitable vein, and 0.2 mL of blood was collected at each time point. Samples were placed into tubes containing ethylenediaminetetraacetic acid dipotassium salt and kept on ice before centrifugation. Within 1 hour after blood collection, the blood samples were centrifuged at 2-8° C. and 6800 g for 6 minutes and stored at −80° C. The time point for blood collection was 0.083, 0.25, 0.5, 1, 2, 4, 8 and 24 hours after intravenous administration, and 0.25, 0.5, 1, 2, 4, 6, 8 and 24 hours after oral administration.

Data set [3] in a line: Plasma protein binding assay (equilibrium dialysis), rat plasma. The format is in vitro ADME. As to conditions: pH 7.4, equilibrium dialysis 5 hours, read-out: Plasma protein binding rate (%) (converted). The procedure:
as §1, §2, §3, §4
A general note: In equilibrium dialysis only unbound substance equilibrates across the membrane.

A short description of data set [4]: Plasma protein binding assay (equilibrium dialysis), mouse plasma. The note with it: pH 7.4, Mice plasma, equilibrium dialysis 5 hours, read-out: Plasma protein binding rate (%) (converted). It counts as in vitro ADME. The procedure: as §1, §2, §3, §4
Data set [5] addresses T1, CYP 2B6 (Homo sapiens, UniProt P20813).
T1 sequence (P20813 1-491): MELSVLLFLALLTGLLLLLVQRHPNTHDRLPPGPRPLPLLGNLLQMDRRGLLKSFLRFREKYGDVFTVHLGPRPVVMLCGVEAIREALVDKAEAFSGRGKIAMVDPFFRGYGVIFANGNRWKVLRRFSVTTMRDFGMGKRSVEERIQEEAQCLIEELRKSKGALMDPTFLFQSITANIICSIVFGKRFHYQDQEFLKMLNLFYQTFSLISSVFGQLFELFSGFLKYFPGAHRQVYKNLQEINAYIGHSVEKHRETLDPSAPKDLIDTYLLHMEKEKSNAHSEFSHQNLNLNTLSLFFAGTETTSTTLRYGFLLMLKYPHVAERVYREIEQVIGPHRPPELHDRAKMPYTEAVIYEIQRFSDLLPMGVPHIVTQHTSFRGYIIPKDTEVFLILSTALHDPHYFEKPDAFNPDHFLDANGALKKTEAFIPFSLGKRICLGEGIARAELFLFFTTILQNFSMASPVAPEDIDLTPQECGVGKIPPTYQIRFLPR
Description: CYP inhibition test, human liver microsomes, CYP2B6. The procedure:
• 1. Test purpose: to evaluate the inhibitory ability of some of the example compounds of the present invention against CYP1A2, 2B6, 2C8, 2C9, 2C19, 2D6 and 3A4 via human liver microsomes. • 2. […] Test method:
• 1. K/Mg buffer: the components were 0.1 mol/L potassium phosphate and 5 mmol/L magnesium chloride with pH 7.4±0.1, preheated. • 2. Solution of the test compound: the test compound was dissolved in dimethyl sulfoxide to prepare a stock solution of 10 mmol/L. 8 μL of 10 mmol/L stock solution was transferred to a 96-well plate containing 12 μL of acetonitrile as the highest concentration point, at 3-fold dilution, for 8 concentrations. • 3. […] Human liver microsomal stock solution: human liver microsomes were dissolved in 0.1 mol/L K/Mg buffer to obtain 20 mg/mL stock solution. • 5. Human liver microsomal working solution: 10 μL of 20 mg/mL human liver microsomal stock solution was taken and added into 990 μL of 0.1 mol/L K/Mg buffer to prepare 0.2 mg/mL human liver microsomal solution. • 6.
600 μL of 0.2 mg/mL human liver microsomal solution and 3 μL of stepwise diluted test compound solution were added to the 96-well plate. 30 μL of the above solution was added on the 96-well plate followed by the addition of 15 μL of the corresponding substrate solution. […]
(Microsomes from liver hold many membrane-bound enzymes, among them those of drug oxidation.)

Regarding `C=CC(=O)N1CCN(c2nc(=O)n(-c3c(C)ccnc3C(C)C)c3nc(-c4c(O)cccc4F)c(F)cc23)[C@@H](C)C1` [AMG510], the fraction unbound at 5 h, 1 μmol/L in data set [1] was 0.075. In addition, in data set [2] (oral gavage, 5 mg/kg), the F is reported as 35.41%; the AUC(0-inf) (in general, the area under the concentration-time curve extrapolated to infinity) amounted to 584 ng·h/mL; the Cmax (commonly the peak of the concentration-time curve) amounted to 1260 ng/mL; the half-life (commonly the time needed for the level to fall by half in the phase considered) is 1.81 h. In data set [2] (intravenous injection, 1 mg/kg), this compound gave an AUC(0-inf) of 319 ng·h/mL, a Cmax of 762 ng/mL, a clearance of 50.7 mL/min/kg and a half-life of 0.36 h. In data set [2] (intravenous injection, 1 mg/kg), the Vd was 1.57 L/kg. In addition, the fraction unbound at 5 h, 1 μmol/L in data set [3] was 0.141. For the same compound, the fraction unbound at 5 h, 1 μmol/L in data set [4] is 0.091. Moreover, the IC50 (commonly the concentration that inhibits the measured activity by half) in data set [5] is greater than 10 µM.

Regarding `C=C(F)C(=O)N1CCN(c2nc(OC[C@@H]3CCCN3C)nc3c2CCN(c2cccc4cccc(Cl)c24)C3)C[C@@H]1CC#N` [MRTX849], in data set [1], the fraction unbound at 5 h, 1 μmol/L is 0.018. In data set [2] (oral gavage, 5 mg/kg), this compound had an F of 13.66%, an AUC(0-inf) of 238 ng·h/mL, a Cmax of 23.3 ng/mL and a half-life of 2.8 h. In data set [2] (intravenous injection, 1 mg/kg), this compound had an AUC(0-inf) of 348 ng·h/mL, a Cmax of 137 ng/mL, a clearance of 48.1 mL/min/kg and a half-life of 3.16 h. Moreover, the Vd in data set [2] (intravenous injection, 1 mg/kg) stood at 13.1 L/kg. Also, the fraction unbound at 5 h, 1 μmol/L in data set [3] is 0.01. Besides, in data set [4], the fraction unbound at 5 h, 1 μmol/L is 0.004. This compound showed an IC50 in data set [5] of 3.93 µM.
